≈ marks a conversion by molar mass, not a printed value.
What was measured:
Apis mellifera = conditions: acute, mortality
Colinus virginianus = conditions: for LD50: acute, oral, mortality
Daphnia magna = conditions: chronic/long-term; duration: 21 days; reproduction
Elodea callitrichoides = conditions: chronic/long-term; duration: 42 days
Hypoaspis aculeifer = conditions: chronic/long-term; mortality
Oryctolagus sp. = conditions: reproduction developmental
Rattus norvegicus = conditions: acute; oral; mortality
Tagia sp. = conditions: chronic/long-term; growth

CNC1=C(c2cccc(C(F)(F)F)c2)C(=O)C(c2ccccc2)O1 (stereo not drawn) [Flurtamone]
LD50 (Apis mellifera; dermal): > 100 µg/piece
LD50 (Apis mellifera; oral, unspecified): > 105 µg/piece
LD50 (Colinus virginianus; diet): > 1580 mg/kg-day
LD50 (Colinus virginianus): > 2530 mg/kg
NOEL (Colinus virginianus; reproduction developmental): 7.3 mg/kg-day
NOEC (Daphnia magna): 0.071 mg/L
NOEC (Elodea callitrichoides): 0.001 mg/L
NOEC (Hypoaspis aculeifer): 89 mg/kg
NOAEL (Oryctolagus sp.): 20 mg/kg-day
LC50 (Pimephales promelas; acute, duration: 96 hours, oral, feed, mortality): 6.64 µg/mL (≈ 19.9 µM)
NOEC (Pimephales promelas; chronic/long-term, growth): 0.188 mg/L
LD50 (Rattus norvegicus): > 5000 mg/kg-day
NOEC (Tagia sp.): 47.5 mg/kg

Source: EPA's ToxValDB 9.5 (doi:10.2903/j.efsa.2017.4976)
